Source: paper PMC12752747, “ENT3: A lysosomal urate transporter regulating urate disposition and macrophage inflammation” (iScience, 2025)

B1: ENT3 (equilibrative nucleoside transporter 3), ENT3-AA construct (Homo sapiens; L31A/L32A) (protein)
chain: MAVVSEDDFQHSSNSTYRTTSSSLRADQEAAAEKLLDRPPPGLQRPEDRFCGTYIIFFSLGIGSLLPWNFFITAKEYWMFKLRNSSSPATGEDPEGSDILNYFESYLAVASTVPSMLCLVANFLLVNRVAVHIRVLASLTVILAIFMVITALVKVDTSSWTRGFFAVTIVCMVILSGASTVFSSSIYGMTGSFPMRNSQALISGGAMGGTVSAVASLVDLAASSDVRNSALAFFLTATVFLVLCMGLYLLLSRLEYARYYMRPVLAAHVFSGEEELPQDSLSAPSVASRFIDSHTPPLRPILKKTASLGFCVTYVFFITSLIYPAICTNIESLNKGSGSLWTTKFFIPLTTFLLYNFADLCGRQLTAWIQVPGPNSKALPGFVLLRTCLIPLFVLCNYQPRVHLKTVVFQSDVYPALLSSLLGLSNGYLSTLALLYGPKIVPRELAEATGVVMSFYVCLGLTLGSACSTLLVHLI
notes: ENT3-AA: full-length ENT3 redirected to the plasma membrane, dileucine L31L32 replaced with A31A32

Experiments:
[1] = target: T1, ENT3 (equilibrative nucleoside transporter 3), ENT3-AA construct (Homo sapiens, UniProt Q9BZD2, L31A/L32A); assay: inhibition of […]urate ([…]) uptake in HEK293 cells transiently expressing ENT3-AA, pH […]; format: cell-based
T1 construct: gene SLC29A3; ENT3-AA: full-length ENT3 redirected to the plasma membrane, dileucine L31L32 replaced with A31A32
T1 sequence (Q9BZD2 1-475 L31A/L32A): B1 chain

[2] = substrate: O=c1[nH]c(=O)c2[nH]c(=O)[nH]c2[nH]1; assay: cells, lysate or membranes; format: cell-based, Homo sapiens; details: proton-coupled transport

Molecule	IC50 [1] [µM]	Km [2] [µM]
OCCN(CCO)c1nc(N2CCCCC2)c2nc(N(CCO)CCO)nc(N3CCCCC3)c2n1 [dipyridamole]	7.71	–
O=[N+]([O-])c1ccc(CSc2ncnc3c2ncn3C2OC(CO)C(O)C2O)cc1 (stereo not drawn) [nitrobenzylthioinosine]	21.7	–
B1	–	1150
